This note sets out measurements from patent US20250084062A1, “SUBSTITUTED QUINOLINE DERIVATIVE” (ASTELLAS PHARMA INC., priority 2021, published 2025).

Read-outs that look alike come from different tables or passages of the source.

In the test the test system is acetylcholine receptor clustering in C2Cl2 cells. Kind of test: Induction of acetylcholine receptor clustering in mouse myoblasts C2Cl2 cells (Test Example 1). The format is cell-based. Conditions: for Emax / EC50: Mus musculus; for Emax: Myoblast, read-out: Max; for EC50: Myotube; for response, % at 30 μM: vs 10 ng/ml Agrin (100%). The protocol: Test Example 1: Evaluation of the Induction of Acetylcholine Receptor Clustering in Mouse Myoblasts C2Cl2 Cells
Induction of acetylcholine receptor clustering by the test compound was evaluated by using fluorescently-labeled Bungarotoxin to image and quantify the acetylcholine receptor cluster region induced by the differentiation of myoblasts into myotubes, and measure the change in area. The following test method was optimized with reference to various reports including FEBS let., 586, 3111-3116 (2012). When a concentration response curve is obtained by plotting the logarithmic concentration of the test compound on the horizontal axis and the ratio of the area of acetylcholine receptor cluster region on the vertical axis, the inducing action of the test compound can be determined.
A concentration response curve as an index indicating acetylcholine receptor clustering inducing action of the test compound in mouse C2Cl2 cells was prepared. C2Cl2 cells (ATCC Number: CRL-1772) were seeded at about 5000 cells/well on a 384-well plate (354667; Corning) coated with type I collagen and allowed to incubate at 37 degrees Celsius overnight in DMEM+20% FBS+1% penicillin/streptomycin medium. The following day, the medium was removed and replaced with a differentiation medium containing DMEM+2% FBS+1% penicillin/streptomycin, and allowed to incubate at 37 degrees Celsius for 4 days. The test compound was dissolved in DMSO and added to a differentiation medium containing 0.1 ng/ml Agrin (550-AG-100; R&D systems) such that the final concentration was […] (3-fold serial dilution) or 0.00017 to 3.3 μM (3-fold serial dilution). The final concentration of DMSO was 0.3%. After the 4 days of incubation, the differentiation medium was replaced with a differentiation medium containing the test compound and 0.1 ng/ml Agrin or a differentiation medium containing 0.1 ng/ml Agrin or 10 ng/ml Agrin alone, and allowed to incubate at 37 degrees Celsius overnight. The next day, 10 μl of DMEM containing Bungarotoxin-Alexa488 (B13422; Life technologies) was added to the differentiation medium containing test compound and Agrin and Agrin alone so that the final concentration of Bungarotoxin-Alexa488 was 1 μg/ml, and was allowed to incubate at 37 degrees Celsius for 1 hour to label the acetylcholine receptor. After removing all the medium, 4% PFA was added to each well and allowed to incubate at room temperature for 10 minutes, then washed with PBS, and allowed to incubate at room temperature for 30 minutes in PBS containing 5% goat serum and 0.3% Triton X-100. After removing the PBS solution, PBS-Tween20 (28352; Thermo fisher scientific) containing Anti-Myosin Heavy Chain eFluor (registered trademark) 660 (50-6503-82; eBioscience) and DAPI (340-07971; Dojindo) was added to each well and allowed to incubate at room temperature for 1 hour to label the myotubes and nuclei. After washing three times with PBS-Tween20, the fluorescence was imaged using IN Cell Analyzer 6000 (GE Healthcare). […] The response of control group (1) was regarded as 0% and the response of the control group (2) was regarded as 100%. For quantification, the signal of only the acetylcholine receptor present in the myotube was used to eliminate non-specific fluorescence.
EC50 and Max value were used as indicators of activity in order to quantitatively evaluate the inducing action of the test compound on acetylcholine receptor clustering. EC50 value is a test compound concentration which indicates 50% in terms of the area of acetylcholine receptor cluster region compared to that of 10 ng/ml Agrin (regarded as 100%) in the concentration response curve. EC50 was calculated by nonlinear regression analysis from the concentration response curve using the area of the cluster region of the test compound as an index. Max value is the maximum response value. […]

Where [1] appears, read: maximum response, area of acetylcholine receptor cluster region vs 10 ng/ml Agrin (100%), 0.1 ng/ml Agrin = 0%.
The mark [2] stands for this setting: C2Cl2 myotubes, with 0.1 ng/ml Agrin, concentration giving 50% of cluster area of 10 ng/ml Agrin (100%), read-out: EC50.

In general, EC50 refers to the concentration that produces a half-maximal response. As for `Cc1cc(-c2ccc(S(=O)(=O)N3C[C@@H](F)[C@H](F)C3)cc2F)nc2cc(C(=O)O)ccc12` [Example 27], under setting [1], the Emax came out at 94.6%. In addition, under setting [2], the EC50 is 103 nM.

Consider `Cc1cc(-c2ccc(S(=O)(=O)N3C[C@@H](F)C[C@H]3CO)cc2F)nc2cc(C(=O)O)ccc12` [Example 28], for which the Emax under setting [1] is 74.2%. In addition, under setting [2], the EC50 is 4030 nM.

As for `CO[C@@H]1CN(S(=O)(=O)c2ccc(-c3cc(C)c4ccc(C(=O)O)cc4n3)c(F)c2)C[C@H]1F` [Example 29], the “response, % at 30 μM” value amounted to 46.2% at 30 μM. For the same compound, the Emax under setting [1] stood at 46.2%.

As for `Cc1cc(-c2ccc(S(=O)(=O)N3CC[C@H](F)C3)cc2C#N)nc2cc(C(=O)O)ccc12` [Example 30], under setting [1], the Emax is 94.7%. In addition, the EC50 under setting [2] came to 1120 nM.

`Cc1cc(-c2ccc(S(=O)(=O)N3CC[C@H](F)C3)cc2CO)nc2cc(C(=O)O)ccc12` [Example 31]: the “response, % at 30 μM” value came to 48.8% at 30 μM. The Emax under setting [1] was 48.8%.

Take `COCc1cc(S(=O)(=O)N2CC[C@H](F)C2)ccc1-c1cc(C)c2ccc(C(=O)O)cc2n1` [Example 32]: the “response, % at 30 μM” value amounted to 38.8% at 30 μM. Also, the Emax under setting [1] stood at 38.8%.

Consider `Cc1cc(-c2c(F)cc(S(=O)(=O)N3CC[C@H](F)C3)cc2F)nc2cc(CC(=O)O)ccc12` [Example 33], for which, under setting [1], the Emax worked out at 86.1%. The concentration giving a half-maximal response (EC50) under setting [2] stood at 65 nM.

As for `Cc1cc(-c2c(F)cc(S(=O)(=O)N3CC[C@H](F)C3)cc2F)nc2cc(CCC(=O)O)ccc12` [Example 34], the Emax under setting [1] was 94.1%. Further, under setting [2], the EC50 came to 16 nM.

On to `Cc1cc(-c2c(F)cc(S(=O)(=O)N3CC[C@H](F)C3)cc2F)nc2cc(/C=C/C(=O)O)ccc12` [Example 35], for which the Emax under setting [1] was found to be 99.5%. Further, the EC50 under setting [2] was determined as 20 nM.

For `Cc1cc(-c2c(F)cc(S(=O)(=O)N3CC[C@H](F)C3)cc2F)nc2nc(C3=CCC(C(=O)O)CC3)ccc12` (some centres unmarked) [Example 36], under setting [1], the Emax amounted to 80.2%. Also, under setting [2], the concentration giving a half-maximal response (EC50) was found to be 392 nM.

On to `Cc1cc(-c2c(F)cc(S(=O)(=O)N3CC[C@H](F)C3)cc2F)nc2nc(C3CCC(C(=O)O)CC3)ccc12` (some centres unmarked) [Example 37], for which the Emax under setting [1] was 70.1%. Further, the EC50 under setting [2] is 3220 nM.

Regarding `Cc1cc(-c2c(F)cc(S(=O)(=O)N3CCC(F)CC3)cc2F)nc2nc(C(=O)O)ccc12` [Example 38], the Emax under setting [1] was determined as 78.5%. Also, under setting [2], the EC50 was 724 nM.

As to `Cc1cc(-c2c(F)cc(S(=O)(=O)N3CC[C@H](F)C3)cc2F)nc2nc(C(=O)O)ccc12` [Example 39], the Emax under setting [1] came to 78.2%. For the same compound, under setting [2], the 50% effective concentration (EC50) worked out at 2570 nM.

`Cc1cc(-c2c(F)cc(S(=O)(=O)N3CCC(F)CC3)cc2F)nc2cc(C(=O)NC3CN(C)C3)ccc12` [Example 41]: the Emax under setting [1] worked out at 87%. Further, the 50% effective concentration (EC50) under setting [2] stood at 52 nM.

`Cc1cc(-c2c(F)cc(S(=O)(=O)N3CC[C@H](F)C3)cc2F)nc2cc(C(=O)N3CC4(CN(C)C4)C3)ccc12` [Example 42]: the Emax under setting [1] amounted to 78.1%. In addition, the EC50 under setting [2] was 19 nM.

Take `Cc1cc(-c2c(F)cc(S(=O)(=O)N3CC[C@H](F)C3)cc2F)nc2cc(C(=O)NCCN(C)C)ccc12` [Example 43]: under setting [1], the Emax turned out to be 91.6%. Besides, under setting [2], the EC50 was found to be 21 nM.

In the case of `Cc1c(F)c(-c2c(F)cc(S(=O)(=O)N3CCC(F)CC3)cc2F)nc2cc(C(=O)N3CC4(CN(C)C4)C3)ccc12` [Example 44], the Emax under setting [1] came to 81.8%. In addition, under setting [2], the EC50 is 5 nM.

`Cc1c(F)c(-c2c(F)cc(S(=O)(=O)N3CC[C@H](F)C3)cc2F)nc2cc(C(=O)N3CC4(CN(C)C4)C3)ccc12` [Example 45]: the Emax under setting [1] is 86.1%. Moreover, under setting [2], the EC50 was found to be 9 nM.

As to `Cc1cc(-c2c(F)cc(S(=O)(=O)N3CCC(F)CC3)cc2F)nc2nc(C(=O)N3CC4(CN(C)C4)C3)ccc12` [Example 46], the Emax under setting [1] was found to be 80.9%. Under setting [2], the EC50 came out at 43 nM.

On to `Cc1cc(-c2ccc(S(=O)(=O)N3CCCCC3)cc2)nc2cc(C(=O)O)ccc12` [Example 47], for which, under setting [1], the Emax turned out to be 102%. For the same compound, the EC50 under setting [2] stood at 428 nM.

Take `Cc1cc(-c2ccc(S(=O)(=O)N3CCC[C@H]3CO)cc2F)nc2cc(C(=O)O)ccc12` [Example 48]: the Emax under setting [1] came to 74%. For the same compound, under setting [2], the concentration for a half-maximal effect (EC50) was determined as 3750 nM.

As for `Cc1cc(-c2ccc(S(=O)(=O)N3C[C@@H](O)[C@H](F)C3)cc2F)nc2cc(C(=O)O)ccc12` [Example 49], under setting [1], the Emax came to 81.9%. For the same compound, under setting [2], the EC50 was 1090 nM.

Consider `Cc1cc(-c2ccc(S(=O)(=O)N3CCC[C@H](O)C3)cc2F)nc2cc(C(=O)O)ccc12` [Example 50], for which the Emax under setting [1] is 70.5%. The EC50 under setting [2] is 3520 nM.

Consider `Cc1cc(S(=O)(=O)N2CC[C@H](F)C2)ccc1-c1nc2cc(C(=O)O)ccc2c(C)c1F` [Example 51], for which the Emax under setting [1] amounted to 77.8%. In addition, the EC50 under setting [2] stood at 159 nM.

Regarding `Cc1cc(-c2c(F)cc(S(=O)(=O)N3CC[C@H](F)C3)cc2F)nc2cc(C(=O)NC[C@H]3COCCN3)ccc12` [Example 52], the Emax under setting [1] was 94.2%. Under setting [2], the EC50 is 33 nM.

On to `Cc1cc(-c2c(F)cc(S(=O)(=O)N3CC[C@H](F)C3)cc2F)nc2cc(C(=O)NC3CCNC3)ccc12` (some centres unmarked) [Example 53], for which, under setting [1], the Emax stood at 77.9%. In addition, the EC50 under setting [2] was 96 nM.

For `Cc1c(F)c(-c2c(F)cc(S(=O)(=O)N3CC[C@H](F)C3)cc2F)nc2cc(C(=O)NC(C)(C)CC(=O)O)ccc12` [Example 54], under setting [1], the Emax stood at 60.8%. In addition, the EC50 under setting [2] is 1490 nM.

As to `Cc1cc(-c2ccc(S(=O)(=O)N3CC[C@H](F)C3)cc2F)nc2c(F)c(N3CCNCC3=O)ccc12` [Example 55], the Emax under setting [1] turned out to be 38.9%. In addition, under setting [2], the half-maximal effective concentration (EC50) stood at 7160 nM.

Regarding `Cc1c(F)c(-c2c(F)cc(S(=O)(=O)N3CC[C@H](F)C3)cc2F)nc2cc(CCN)ccc12` [Example 56], under setting [1], the Emax was determined as 97%. Moreover, under setting [2], the EC50 came to 53 nM.

As for `Cc1c(F)c(-c2c(F)cc(S(=O)(=O)N3CC[C@H](F)C3)cc2F)nc2cc(C3CCNCC3)ccc12` [Example 57], the Emax under setting [1] is 87%. Moreover, under setting [2], the EC50 was 89 nM.

Take `Cc1cc(-c2c(F)cc(S(=O)(=O)N3CCC(F)CC3)cc2F)nc2cc(C(=O)NCCCN)ccc12` [Example 58]: under setting [1], the Emax was 89.6%. Also, the EC50 under setting [2] came out at 33 nM.

Take `CNCCN(C)C(=O)c1ccc2c(C)cc(-c3c(F)cc(S(=O)(=O)N4CC[C@H](F)C4)cc3F)nc2c1` [Example 59]: the Emax under setting [1] was determined as 95.8%. The EC50 under setting [2] is 49 nM.

As to `CNCCNC(=O)c1ccc2c(C)cc(-c3c(F)cc(S(=O)(=O)N4CCC(F)CC4)cc3F)nc2n1` [Example 60], the Emax under setting [1] came to 99.2%. In addition, the EC50 under setting [2] came to 11 nM.

On to `CNCCNC(=O)c1ccc2c(C)cc(-c3c(F)cc(S(=O)(=O)N4CC[C@H](F)C4)cc3F)nc2n1` [Example 61], for which the Emax under setting [1] is 92.4%. Besides, under setting [2], the half-maximal effective concentration (EC50) worked out at 26 nM.

Take `Cc1cc(-c2c(F)cc(S(=O)(=O)N3CC[C@H](F)C3)cc2F)nc2nc(C3=CCNCC3)ccc12` [Example 62]: the Emax was 86.4% and it took 1 nM to reach a half-maximal effect (EC50).

As for `Cc1cc(-c2ccc(S(=O)(=O)N3CCCCC3)cc2)nc2cc(OCCO)ccc12` [Example 63], the Emax under setting [1] worked out at 104%. The half-maximal effective concentration (EC50) under setting [2] turned out to be 165 nM.

Take `Cc1cc(-c2ccc(S(=O)(=O)N3CC[C@H](F)C3)cc2F)nc2cc(OC[C@@H](O)CO)ccc12` [Example 64]: the Emax under setting [1] turned out to be 107%. The EC50 under setting [2] stood at 24 nM.
